From patent publication US4717727A, “Esters of pyridine-2,4- and 2,5-dicarboxylic acid as medicaments for the inhibition of proline hydroxylase and lysine hydroxylase” (Hoechst Aktiengesellschaft, priority 1984, dated 1988)

Key:
proline hydroxylase [1] = target: T1, proline hydroxylase (Gallus gallus, UniProt P16924); details: cited from earlier work
T1 sequence (P16924 1-516): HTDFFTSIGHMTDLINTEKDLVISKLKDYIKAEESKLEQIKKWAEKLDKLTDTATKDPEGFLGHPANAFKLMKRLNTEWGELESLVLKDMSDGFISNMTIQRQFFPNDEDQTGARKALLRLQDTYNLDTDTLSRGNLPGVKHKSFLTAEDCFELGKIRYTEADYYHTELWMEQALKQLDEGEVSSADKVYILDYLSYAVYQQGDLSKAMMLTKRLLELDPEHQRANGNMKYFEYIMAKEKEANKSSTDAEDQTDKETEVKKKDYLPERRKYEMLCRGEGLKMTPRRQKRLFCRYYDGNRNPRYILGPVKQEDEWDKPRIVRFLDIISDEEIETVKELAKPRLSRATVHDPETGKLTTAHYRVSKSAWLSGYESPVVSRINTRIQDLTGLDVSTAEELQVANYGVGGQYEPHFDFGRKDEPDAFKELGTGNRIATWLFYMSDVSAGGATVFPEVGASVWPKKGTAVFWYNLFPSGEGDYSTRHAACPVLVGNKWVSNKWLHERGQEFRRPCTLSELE
T1 sequence (P09102 23-515 partner): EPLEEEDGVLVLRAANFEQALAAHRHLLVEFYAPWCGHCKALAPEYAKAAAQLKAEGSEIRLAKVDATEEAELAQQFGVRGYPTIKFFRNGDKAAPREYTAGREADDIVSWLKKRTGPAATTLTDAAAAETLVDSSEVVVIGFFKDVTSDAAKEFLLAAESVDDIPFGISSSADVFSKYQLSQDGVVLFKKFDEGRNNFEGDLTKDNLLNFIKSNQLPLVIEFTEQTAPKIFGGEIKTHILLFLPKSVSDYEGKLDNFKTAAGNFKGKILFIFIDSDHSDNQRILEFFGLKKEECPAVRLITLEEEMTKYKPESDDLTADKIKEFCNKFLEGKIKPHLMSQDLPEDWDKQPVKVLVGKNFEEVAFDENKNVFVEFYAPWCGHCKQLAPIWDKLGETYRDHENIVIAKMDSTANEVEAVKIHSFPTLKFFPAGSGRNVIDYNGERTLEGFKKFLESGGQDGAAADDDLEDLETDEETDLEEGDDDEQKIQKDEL

[2] = test system: collagen biosynthesis in cell culture; details: cited from earlier work
proline hydroxylase [3] = test: Inhibition of collagen proline hydroxylation in organ culture (isolated calvariae / EHS sarcoma tissue), ratio of 14C-proline to 14C-hydroxyproline; assay type: cell-based; details: Inhibition 50 %; incubation with 14C-proline, ratio 14C-proline to 14C-hydroxyproline in extracted collagen; read-out: Conc. giving the stated Inhibition, % (50)
Experimental: Determination of the inhibitory effect is described below.
(a) Tissue of the EHS sarcoma tumor, which produces an extracellular matrix resembling basal membrane and produces, in particular, type IV collagen (Erkin et al., Exp. Med. 145 (1977) 204-220), is incubated in analogy to the method of K. Tryggvason et al. (Biochemistry 19 (1980) 1248-1289) in the presence of ^14 C-proline and of inhibitors in various concentrations. After the incubation has been stopped, the tissue is homogenized and extracted with dilute acetic acid. After NaCl precipitation, the extracted collagen was hydrolyzed with 6 M HCl, and the ratio of ^14 C-proline to ^14 C-hydroxyproline was determined.
(b) Isolated calvariae are incubated in analogy to the method of B. Peterkovsky and R. DiBlasio (Anal. Biochem. 66 (1975) 279-286) in the presence of U-^14 C-proline and inhibitors. After the incubation has been stopped, the calvariae are homogenized, and the collagen is extracted with dilute acetic acid. After hydrolysis of the extract with 6 M HCl, the ratio of ^14 C-proline to ^14 C-hydroxyproline is determined.

[4] = test system: Clq biosynthesis by macrophages; details: cited from earlier work

IC50 (proline hydroxylase [3]) | SMILES | inhibition of proline hydroxylase (proline hydroxylase [1]) | inhibitory effectiveness in cell culture [2] | inhibition of Clq biosynthesis by macrophages [4]
670 µM | O=C(O)c1ccnc(C(=O)O)c1 [H 4] | effectively inhibited | effective inhibitors only in very high concentrations | –
– | c1ccc(-c2ccccn2)nc1 [α,α'-dipyridyl] | – | – | leads to inhibition of Clq biosynthesis
3 µM | CCOC(=O)c1ccnc(C(=O)OCC)c1 [C2 H5 4] | – | – | –
90 µM | CCOC(=O)c1ccc(C(=O)OCC)nc1 [C2 H5 5] | – | – | –
2100 µM | O=C(O)c1ccc(C(=O)O)nc1 [H 5] | effectively inhibited | effective inhibitors only in very high concentrations | –
